Test results reported in patent US11453660B2, “Androgen receptor and glucocorticoid receptor modulators” (ONCOSTELLAE, S.L., priority 2017, dated 2022).

Assays:
AR-Receptor = molecular target: T1, AR-Receptor (Homo sapiens, UniProt P10275); assay: Functional Assay AR-Receptor (MDA-MB-453 cells, luciferase); type: cell-based; settings: antagonist effect in the presence of DHT 1 nM, 24 h, luciferase luminescence, read-out: AR antag KB
T1 sequence (P10275 1-920 Q868H): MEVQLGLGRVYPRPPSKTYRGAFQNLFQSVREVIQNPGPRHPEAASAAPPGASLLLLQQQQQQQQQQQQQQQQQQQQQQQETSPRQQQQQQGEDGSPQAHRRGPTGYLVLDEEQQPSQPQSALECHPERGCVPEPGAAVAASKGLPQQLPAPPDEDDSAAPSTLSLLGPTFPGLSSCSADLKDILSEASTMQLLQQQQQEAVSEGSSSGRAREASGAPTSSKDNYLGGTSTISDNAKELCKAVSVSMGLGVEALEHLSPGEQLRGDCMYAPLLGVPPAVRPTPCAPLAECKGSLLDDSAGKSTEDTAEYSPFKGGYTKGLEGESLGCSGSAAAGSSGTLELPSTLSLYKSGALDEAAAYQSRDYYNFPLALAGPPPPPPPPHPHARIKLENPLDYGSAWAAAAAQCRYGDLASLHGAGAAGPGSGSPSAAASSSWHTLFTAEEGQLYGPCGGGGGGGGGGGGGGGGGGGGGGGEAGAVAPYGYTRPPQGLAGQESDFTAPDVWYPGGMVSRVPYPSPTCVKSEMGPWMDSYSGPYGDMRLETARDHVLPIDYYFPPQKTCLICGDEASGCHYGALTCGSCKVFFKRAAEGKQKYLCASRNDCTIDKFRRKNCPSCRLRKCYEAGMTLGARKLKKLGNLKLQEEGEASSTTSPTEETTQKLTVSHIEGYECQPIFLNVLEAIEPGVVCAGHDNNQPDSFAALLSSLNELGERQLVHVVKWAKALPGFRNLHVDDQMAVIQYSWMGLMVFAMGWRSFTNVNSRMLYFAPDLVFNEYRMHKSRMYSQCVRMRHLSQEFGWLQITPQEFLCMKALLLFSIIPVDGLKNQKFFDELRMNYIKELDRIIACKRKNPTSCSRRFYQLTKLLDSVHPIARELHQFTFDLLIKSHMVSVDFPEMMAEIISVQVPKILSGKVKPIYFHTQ
How it was run: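 MDA-MB-453 cells, 8000/well, were switched to medium with 0.1% FBS and exposed to compounds for 24 h at 37 °C. Antagonist mode used 1 nM DHT. After lysis and a freeze-thaw cycle, luciferase luminescence was read.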

[1] = molecular target: T2, Human Glucocorticoid Receptor (Homo sapiens, UniProt P04150); assay: Competition Binding in IM-9 Human Glucocorticoid Receptor (GR IM-9); settings: cytosol from IM-9 cell line, 1.5 nM [3H]-Dexamethasone, 4° C. for 6 hours
T2 construct: endogenous in cells; host or cells: cytosol from IM-9 cell line
T2 sequence (P04150 1-777): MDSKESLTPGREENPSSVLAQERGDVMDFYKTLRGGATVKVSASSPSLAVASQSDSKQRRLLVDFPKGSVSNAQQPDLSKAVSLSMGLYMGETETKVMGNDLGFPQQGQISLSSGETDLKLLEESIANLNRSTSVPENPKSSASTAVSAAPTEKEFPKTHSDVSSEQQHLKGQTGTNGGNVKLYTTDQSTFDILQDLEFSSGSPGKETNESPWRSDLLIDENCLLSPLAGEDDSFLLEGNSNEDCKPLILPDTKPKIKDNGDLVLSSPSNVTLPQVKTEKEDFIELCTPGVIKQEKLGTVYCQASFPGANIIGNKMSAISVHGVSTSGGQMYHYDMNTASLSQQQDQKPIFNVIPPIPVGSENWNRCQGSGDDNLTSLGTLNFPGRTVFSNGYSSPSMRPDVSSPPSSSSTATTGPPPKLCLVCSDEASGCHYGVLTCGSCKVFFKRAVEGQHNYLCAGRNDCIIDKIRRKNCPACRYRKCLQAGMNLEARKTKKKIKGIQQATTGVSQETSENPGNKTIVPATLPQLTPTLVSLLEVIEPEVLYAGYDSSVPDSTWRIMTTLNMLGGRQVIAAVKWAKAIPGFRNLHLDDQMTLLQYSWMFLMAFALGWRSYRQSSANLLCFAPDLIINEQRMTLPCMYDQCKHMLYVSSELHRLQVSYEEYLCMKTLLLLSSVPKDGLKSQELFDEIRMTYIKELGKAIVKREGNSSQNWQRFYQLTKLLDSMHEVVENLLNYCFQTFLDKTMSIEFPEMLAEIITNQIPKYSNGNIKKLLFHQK
How it was run: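 Radioligand competition using 100 μg IM-9 cell cytosol and 1.5 nM [3H]-dexamethasone, incubated 6 h at 4° C in TES/molybdate buffer, pH 7.4. Filtration on PEI-treated GF/B filters, scintillation counting; nonspecific binding defined with 10 μM triamcinolone.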

SMILES	Kb (AR-Receptor)	IC50 [1]
COC(=O)C1=C(C=O)NC(C2CC2)=C(C(=O)OC)C1c1csc2c(C#N)cccc12 (stereo not drawn) [Example C117, Dimethyl 4-(7-cyanobenzo[b]thiophen-3-yl)-2-cyclopropyl-6-formyl-1,4-dihydropyridine-3,5-dicarboxylate]	100 to 1000 nM	< 100 nM
CC(=O)C1=C(C)NC(C)=C(C(=O)OCc2ccncc2)C1c1csc2ccc(F)cc12 (stereo not drawn) [Example C46, Pyridin-4-ylmethyl 5-acetyl-4-(5-fluorobenzo[b]thiophen-3-yl)-2,6-dimethyl-1,4-dihydropyridine-3-carboxylate]	100 to 1000 nM	< 100 nM
CC(=O)C1=C(C)NC(C)=C(C(=O)OCC2CCOCC2)C1c1csc2ccc(F)cc12 (stereo not drawn) [Example C44, (Tetrahydro-2H-pyran-4-yl)methyl 5-acetyl-4-(5-fluorobenzo[b]thiophen-3-yl)-2,6-dimethyl-1,4-dihydropyridine-3-carboxylate]	100 to 1000 nM	100 to 1000 nM
CC(=O)C1=C(C)NC(C)=C(C(=O)OCc2ccccc2)C1c1csc2ccc(Cl)cc12 (stereo not drawn) [Example C42, Benzyl 5-acetyl-4-(5-chlorobenzo[b]thiophen-3-yl)-2,6-dimethyl-1,4-dihydropyridine-3-carboxylate]	< 100 nM	< 100 nM
CC(=O)C1=C(C)NC(C)=C(C(=O)OCc2cccc(C#N)c2)C1c1csc2ncccc12 (stereo not drawn) [Example C72, 3-Cyanobenzyl 5-acetyl-2,6-dimethyl-4-(thieno[2,3-b]pyridin-3-yl)-1,4-dihydropyridine-3-carboxylate]	≥ 1000 nM	< 100 nM
COC(=O)C1=C(CO)NC(C2CC2)=C(C(=O)OC)C1c1csc2c(C#N)cccc12 (stereo not drawn) [Example C118, Dimethyl 4-(7-cyanobenzo[b]thiophen-3-yl)-2-cyclopropyl-6-(hydroxymethyl)-1,4-dihydropyridine-3,5-dicarboxylate]	100 to 1000 nM	< 100 nM
CC(=O)C1=C(C)NC(C)=C(C(=O)OCC2CC2)C1c1csc2ncccc12 (stereo not drawn) [Example C24, Cyclopropylmethyl 5-acetyl-2,6-dimethyl-4-(thieno[2,3-b]pyridin-3-yl)-1,4-dihydropyridine-3-carboxylate]	≥ 1000 nM	< 100 nM
CC(=O)C1=C(C)NC(C)=C(C(=O)OCc2ccccc2)C1c1csc2ccccc12 (stereo not drawn) [Example B6, Benzyl 5-acetyl-4-(benzo[b]thiophen-3-yl)-2,6-dimethyl-1,4-dihydro-pyridine-3-carboxylate]	100 to 1000 nM	100 to 1000 nM
CC(=O)C1=C(C)NC(C)=C(C(=O)OCc2cccnc2)C1c1csc2ccccc12 (stereo not drawn) [Example C48, Pyridin-3-ylmethyl 5-acetyl-4-(benzo[b]thiophen-3-yl)-2,6-dimethyl-1,4-dihydropyridine-3-carboxylate]	100 to 1000 nM	100 to 1000 nM
CC(=O)C1=C(C)NC(C)=C(C(=O)OCc2ccccc2Br)C1c1csc2ncccc12 (stereo not drawn) [Example C67, 2-bromobenzyl 5-acetyl-2,6-dimethyl-4-(thieno[2,3-b]pyridin-3-yl)-1,4-dihydropyridine-3-carboxylate]	< 100 nM	< 100 nM

Now from value to compound:

Kb (AR-Receptor)	IC50 [1]	SMILES
100 to 1000 nM	< 100 nM	CC1=C(C(=O)C2CC2)C(c2csc3c(C#N)cccc23)C(C(=O)OCC2CC2)=C(N)N1 (stereo not drawn) [Example D31, Cyclopropylmethyl 2-amino-4-(7-cyanobenzo[b]thiophen-3-yl)-5-(cyclopropanecarbonyl)-6-methyl-1,4-dihydropyridine-3-carboxylate]
100 to 1000 nM	< 100 nM	CC(=O)C1=C(C)NC(C2CC2)=C(C(=O)OCc2ccncc2)C1c1csc2c(Br)cccc12 (stereo not drawn) [Example J41, Pyridin-4-ylmethyl 5-acetyl-4-(7-bromobenzo[b]thiophen-3-yl)-2-cyclopropyl-6-methyl-1,4-dihydropyridine-3-carboxylate]
100 to 1000 nM	< 100 nM	CC(=O)C1=C(C)NC(N)=C(C(=O)OCC2CCCCC2)C1c1csc2c(C#N)cccc12 (stereo not drawn) [Example D30, Cyclohexylmethyl 5-acetyl-2-amino-4-(7-cyanobenzo[b]thiophen-3-yl)-6-methyl-1,4-dihydropyridine-3-carboxylate]
≥ 1000 nM	< 100 nM	C#CCOC(=O)C1=C(C)NC(N)=C(C(=O)OCC2CC2)C1c1csc2c(C#N)cccc12 (stereo not drawn) [Example D47, 3-(Cyclopropylmethyl) 5-(prop-2-yn-1-yl) 2-amino-4-(7-cyanobenzo[b]thiophen-3-yl)-6-methyl-1,4-dihydropyridine-3,5-dicarboxylate]
< 100 nM	< 100 nM	COC(=O)C1=C(C)NC(N)=C(C(=O)OC(C)C)C1c1csc2c(C#N)cccc12 (stereo not drawn) [Example D41, 3-Isopropyl 5-methyl 2-amino-4-(7-cyanobenzo[b]thiophen-3-yl)-6-methyl-1,4-dihydropyridine-3,5-dicarboxylate]
100 to 1000 nM	< 100 nM	COC(=O)C1=C(C)NC(N)=C(C(=O)OC2CCCC2)C1c1csc2c(C#N)cccc12 (stereo not drawn) [Example D27, 3-Cyclopentyl 5-methyl 2-amino-4-(7-cyanobenzo[b]thiophen-3-yl)-6-methyl-1,4-dihydropyridine-3,5-dicarboxylate]
100 to 1000 nM	< 100 nM	CC(=O)C1=C(C)NC(C)=C(C(=O)OCc2ccc(-c3ccncc3)cc2)C1c1csc2ncccc12 (stereo not drawn) [Example L1, 4-(pyridin-4-yl)benzyl 5-acetyl-2,6-dimethyl-4-(thieno[2,3-b]pyridin-3-yl)-1,4 dihydropyridine-3-carboxylate]
100 to 1000 nM	< 100 nM	COC(=O)C1=C(C2CC2)NC(C)=C(C(C)=O)C1c1csc2c(Br)cccc12 (stereo not drawn) [Example J26, Methyl 5-acetyl-4-(7-bromobenzo[b]thiophen-3-yl)-2-cyclopropyl-6-methyl-1,4-dihydropyridine-3-carboxylate]
